Measured values reported in US11510886B2, “Metformin amino acid compounds and methods of using the same” (Laboratorios Silancs S.A. DE C.V., priority 2016, dated 2022).
Where two headings read alike, the source gives them in different places.

How the values were obtained:
[1] = STZ-diabetic male rats, mean ± SD
[2] = terms of European Pharmacopeia 7.0 section 5.11
blood glucose level = test: Effect of metformin compounds on the glucokinetic profile after oral glucose overload; assay type: in vivo, Rat; conditions: rat, 750 mg/kg referred to metformin base, mean ± SD
[3] = rat, in vivo, po, 250 mg/kg
[4] = for Body weight (g) On distribution day: before dosing
[5] = diabetic rats, 14 days daily oral
[6] = test system: rat model of streptozotocin-induced diabetes; test: Blood glucose levels in rat model of streptozotocin-induced diabetes, 14 days oral
[7] = test system: rat model of streptozotocin-induced diabetes; conditions: about 18 hours after last administration, fasted; Dunnet test
[8] = before first TI/RI administration
[9] = Groups B-K, 250 mg/kg, Mean ± SD

With `CC(C)[C@H](N)C(=O)O.CN(C)C(=N)NC(=N)N` [Metformin valinate, metformin valinate] the “Absolute body weight, Day −3 (before STZ administration)” value ([1]; baseline before STZ and before first TI/RI administration) was 233.50 ± 9.71 g, the “Absolute body weight, Day −1” value [1, 8] was 213.90 ± 16.31 g and the “Absolute body weight, Day −2 (distribution of groups)” value [1, 8] was 217.43 ± 14.43 g. For the same molecule, the “Physical form (hygroscopicity)” value ([2]; listed as 14. VALINE) was “Hygroscopic solid”, the “Physical form (hygroscopicity)” value ([2]; listed as valine) was “hygroscopic” and the “Blood glucose level, 0.25 h post-glucose overload” value (blood glucose level; 0.25 h post-glucose overload, *p<0.05 vs vehicle) was 102.50 ± 12.07 mg/dL. For the same molecule, the “Blood glucose level, 0.5 h post-glucose overload” value (blood glucose level; 0.5 h post-glucose overload) was 101.00 ± 14.90 mg/dL, the “Blood glucose level, 1 h post-glucose overload” value (blood glucose level; 1 h post-glucose overload, *p<0.05 vs vehicle) was 100.25 ± 15.44 mg/dL and the “Blood glucose level, 2 h post-glucose overload” value (blood glucose level; 2 h post-glucose overload) was 97.00 ± 14.54 mg/dL. The “Blood glucose level, 3 h post-glucose overload” value (blood glucose level; 3 h post-glucose overload, *p<0.05, **p<0.01 vs vehicle) was 93.50 ± 18.91 mg/dL, the “Blood glucose level, 4 h post-glucose overload” value (blood glucose level; 4 h post-glucose overload, *p<0.05 vs vehicle) was 86.50 ± 10.15 mg/dL and the “Blood glucose level, 6 h post-glucose overload” value (blood glucose level; 6 h post-glucose overload) was 92.75 ± 5.56 mg/dL. For the same molecule, the “Blood glucose level, pre-glucose overload” value (blood glucose level; pre-glucose overload, *p<0.05 vs vehicle) was 90.25 ± 3.86 mg/dL, the “AUC(0-24)” value [3] was 123.05 µg·h/mL and the “Cmax” value [3] was 13700 ng/mL. For the same molecule, the “Metformin base concentration in plasma, 0.5 h post-administration” value [3] was 8.75 ± 0.50 µg/mL, the “Metformin base concentration in plasma, 1 h post-administration” value [3] was 11.56 ± 2.71 µg/mL and the “Metformin base concentration in plasma, 2 h post-administration” value [3] was 12.90 ± 2.38 µg/mL. For the same molecule, the “Metformin base concentration in plasma, 4 h post-administration” value [3] was 13.70 ± 2.55 µg/mL, the “Metformin base concentration in plasma, 8 h post-administration” value [3] was 4.79 ± 0.38 µg/mL and the “Metformin base concentration in plasma, 24 h post-administration” value [3] was 0.21 ± 0.09 µg/mL. The macroscopic necropsy findings ([4]; 750 mg/kg for five days) was “small additional lobe”, the “Body weight (g) On administration day” value [4, 9] was 193.85 ± 7.65 g and the “Body weight (g) On distribution day” value [4, 9] was 186.67 ± 11.37 g. For the same molecule, the “Body weight (g) On distribution day” value ([4]; Groups L-U, 750 mg/kg, Mean ± SD) was 190.28 ± 6.26 g, the “Body weight (g) On first administration day” value ([4]; Groups L-U, 750 mg/kg, first column of this head, Mean ± SD) was 206.48 ± 10.52 g and the “Body weight (g) On first administration day” value ([4]; Groups L-U, 750 mg/kg, second column of this head, Mean ± SD) was 194.90 ± 4.71 g. For the same molecule, the mortality [5] was “found dead on the day 9 of study”, the “Blood glucose levels before TI/RI administration, Day −1” value ([6]; STZ-diabetic rats, before first TI/RI administration, mean ± SD, n.d. = all values beyond ULOD of glucometer (600 mg/dl), § n=1, ¢ n=2) was 592.00^§ ± n.d.^§ mg/dL and the “blood glucose levels 2 hours after administration on day 2 vs diabetic animals treated with vehicle” value ([6]; diabetic rats, 250 mg/kg as metformin base) was “significantly lower blood glucose levels”. The “Blood glucose levels before TI/RI administration, Day −3 (before STZ administration)” value ([6]; rats, baseline before STZ and before first TI/RI administration, mean ± SD) was 120.00 ± 1.73 mg/dL and the “plasma glucose levels at the time of sacrifice” value [7] was “significantly higher”.
